Source: patent publication US12077503B2, “Substituted cyclic amides and their use as herbicides” (FMC CORPORATION, priority 2015, dated 2024)

What was measured:
Assay type in all cases: in vivo
[1] = system: giant foxtail (Setaria faberii); assay: Test A preemergence
Method in brief: (§1)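 Compounds were formulated in a non-phytotoxic solvent mixture with surfactant and applied as a preemergence directed soil spray after seeding, or sprayed postemergence over plants 2 to 10 cm tall at the one- to two-leaf stage. Evaluation after about 10 d compared treated with untreated controls, using a scale from 0 (no effect) to 100 (complete control).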

Kochia (Kochia scoparia) [2] = assay: Test A preemergence
Method in brief: as §1

[3] = system: ryegrass, Italian (Italian ryegrass, Lolium multiflorum); assay: Test A preemergence; conditions: preemergence
Method in brief: as §1

[4] = system: barnyardgrass (Echinochloa crus-galli); assay: Test A preemergence
Method in brief: as §1

[5] = system: pigweed (Amaranthus retroflexus); assay: Test A preemergence; conditions: preemergence
[6] = system: ragweed (common ragweed, Ambrosia elatior); assay: Test A preemergence; conditions: preemergence
Method in brief: as §1

[7] = system: giant foxtail (Setaria faberii); assay: Test A postemergence; conditions: postemergence, 0 to 100 scale (0 no effect, 100 complete control)
Method in brief: as §1

Kochia (Kochia scoparia) [8] = assay: Test A postemergence; conditions: postemergence, 0 to 100 scale (0 no effect, 100 complete control)
Method in brief: as §1

[9] = system: ryegrass, Italian (Italian ryegrass, Lolium multiflorum); assay: Test A postemergence; conditions: postemergence, 0 to 100 scale (0 no effect, 100 complete control)
Method in brief: as §1

corn (Zea mays) = assay: Test A postemergence; conditions: postemergence, 0 to 100 scale (0 no effect, 100 complete control)
Method in brief: as §1

[10] = system: wheat (Triticum aestivum); assay: Test A postemergence; conditions: postemergence, 0 to 100 scale (0 no effect, 100 complete control)
Method in brief: as §1

[11] = system: Galium (catchweed bedstraw, Galium aparine); assay: Test A postemergence; conditions: postemergence, 0 to 100 scale (0 no effect, 100 complete control)
Method in brief: as §1

[12] = system: barnyardgrass (Echinochloa crus-galli); assay: Test A postemergence; conditions: postemergence, 0 to 100 scale (0 no effect, 100 complete control)
Method in brief: as §1

[13] = system: blackgrass (Alopecurus myosuroides); assay: Test A postemergence; conditions: postemergence, 0 to 100 scale (0 no effect, 100 complete control)
Method in brief: as §1

[14] = system: pigweed (Amaranthus retroflexus); assay: Test A postemergence; conditions: postemergence, 0 to 100 scale (0 no effect, 100 complete control)
Method in brief: as §1

[15] = system: ragweed (common ragweed, Ambrosia elatior); assay: Test A postemergence; conditions: postemergence, 0 to 100 scale (0 no effect, 100 complete control)
Method in brief: as §1

[16] = system: sedge, umbrella (small-flower umbrella sedge, Cyperus difformis); assay: Test B flooded paddy test; conditions: Flood, 500 g ai/ha; 0 to 100 scale where 0 is no effect and 100 is complete control; 13 to 15 d
Method in brief: (§2)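 2-leaf plants; pots flooded 3 cm over soil; cpd added to paddy water; depth held; greenhouse 13–15 d; visual rating vs controls, 0 = no effect, 100 = complete control.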

[17] = system: barnyardgrass (Echinochloa crus-galli); assay: Test B flooded paddy test; conditions: Flood, 500 g ai/ha; 0 to 100 scale where 0 is no effect and 100 is complete control; 13 to 15 d
Method in brief: as §2

[18] = system: ducksalad (Heteranthera limosa); assay: Test B flooded paddy test; conditions: Flood, 500 g ai/ha; 0 to 100 scale where 0 is no effect and 100 is complete control; 13 to 15 d
Method in brief: as §2

rice (Oryra sativa) = assay: Test B flooded paddy test; conditions: Flood, 500 g ai/ha; 0 to 100 scale where 0 is no effect and 100 is complete control; 13 to 15 d
Method in brief: as §2

[19] = 125 g ai/ha, Preemergence, visual injury after approximately 10 d, 0 to 100 scale where 0 is no effect and 100 is complete control
[20] = 500 g ai/ha, preemergence, 0 to 100 scale, 0 = no effect, 100 = complete control
[21] = 125 g ai/ha, visual rating after approx. 10 d, 0 to 100 scale where 0 is no effect and 100 is complete control
[22] = 500 g ai/ha, 0 to 100 scale, 0 = no effect, 100 = complete control
[23] = 125 g ai/ha, visual injury after approximately 10 d
[24] = 500 g ai/ha, visual injury, approx. 10 d
[25] = 125 g ai/ha, visual rating after approx. 10 d

Question: With `O=C1NCC(c2cccc(OC(F)(F)C(F)F)c2)C1C(=O)Nc1ccccc1F` (racemic) [Compound 695] as the molecule, how does the “Plant response rating, Foxtail, Giant” value [1, 19] read?
Answer: 90

Question: And the “Plant response rating, Foxtail, Giant” value [1, 20]?
Answer: 90

Question: And the “Plant response rating, Kochia” value (Kochia (Kochia scoparia) [2]; [19])?
Answer: 30

Question: What about the “Plant response rating, Kochia” value (Kochia (Kochia scoparia) [2]; [20]) of the same molecule?
Answer: 90

Question: What about the “Plant response rating, Ryegrass, Italian” value [3, 21] of the same molecule?
Answer: 40

Question: And the “Plant response rating, Ryegrass, Italian” value [3, 22]?
Answer: 30

Question: What about the “Plant response rating, Barnyardgrass” value [4, 19] of the same molecule?
Answer: 90

Question: What about the “Plant response rating, Barnyardgrass” value [4, 20] of the same molecule?
Answer: 90

Question: What about the “Plant response rating, Pigweed” value [5, 21] of the same molecule?
Answer: 30

Question: What about the “Plant response rating, Pigweed” value [5, 22] of the same molecule?
Answer: 40

Question: What about the “Plant response rating, Ragweed” value [6, 21] of the same molecule?
Answer: 20

Question: What about the “Plant response rating, Ragweed” value [6, 22] of the same molecule?
Answer: 40

Question: What about the “Plant response rating, Foxtail, Giant” value [7, 23] of the same molecule?
Answer: 80

Question: What about the “Plant response rating, Foxtail, Giant” value [7, 24] of the same molecule?
Answer: 80

Question: What about the “Plant response rating, Kochia” value (Kochia (Kochia scoparia) [8]; [23]) of the same molecule?
Answer: 30

Question: What about the “Plant response rating, Kochia” value (Kochia (Kochia scoparia) [8]; [24]) of the same molecule?
Answer: 50

Question: What about the “Plant response rating, Ryegrass, Italian” value [9, 23] of the same molecule?
Answer: 0

Question: What about the “Plant response rating, Ryegrass, Italian” value [9, 24] of the same molecule?
Answer: 20

Question: What about the “Plant response rating, Corn” value (corn (Zea mays); [23]) of the same molecule?
Answer: 80

Question: What about the “Plant response rating, Corn” value (corn (Zea mays); [24]) of the same molecule?
Answer: 80

Question: What about the “Plant response rating, Wheat” value [10, 23] of the same molecule?
Answer: 20

Question: And the “Plant response rating, Wheat” value [10, 24]?
Answer: 40

Question: What about the “Plant response rating, Galium” value [11, 23] of the same molecule?
Answer: 50

Question: What about the “Plant response rating, Galium” value [11, 24] of the same molecule?
Answer: 40

Question: And the “Plant response rating, Barnyardgrass” value [12, 25]?
Answer: 80

Question: What about the “Plant response rating, Barnyardgrass” value [12, 24] of the same molecule?
Answer: 90

Question: And the “Plant response rating, Blackgrass” value [13, 25]?
Answer: 0

Question: What about the “Plant response rating, Blackgrass” value [13, 24] of the same molecule?
Answer: 40

Question: What about the “Plant response rating, Pigweed” value [14, 23] of the same molecule?
Answer: 20

Question: And the “Plant response rating, Pigweed” value [14, 24]?
Answer: 30

Question: And the “Plant response rating, Ragweed” value [15, 23]?
Answer: 20

Question: And the “Plant response rating, Ragweed” value [15, 24]?
Answer: 40

Question: What about the “Plant response rating, Sedge, Umbrella” value [16] of the same molecule?
Answer: 0

Question: What about the “Plant response rating, Barnyardgrass” value [17] of the same molecule?
Answer: 80

Question: What about the “Plant response rating, Ducksalad” value [18] of the same molecule?
Answer: 100

Question: What about the “Plant response rating, Rice” value (rice (Oryra sativa)) of the same molecule?
Answer: 0
